Values joined by “and” are separate entries in the source; they are usually repeats but may differ in a detail not shown here. Identical values can stand only once. Toxic doses and inconclusive results are not listed. Rule as the data show it: active = T/C of 150% or more; inactive = T/C below 125%.
Test system: L1210 leukemia ip in BDF1 mice, survival T/C
Test: NCI In Vivo Anticancer Drug Screen. Data for tumor model L1210 Leukemia (intraperitoneal) in B6D2F1 (BDF1) mice
Settings: endpoint: mean survival time, higher = longer survival
Procedure, shortened: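 Antitumor effect is assessed in tumor-bearing animals. Survival in the compound arm is compared with a vehicle-dosed control arm and expressed as their quotient.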

[1] = dose: 100.0 mg/kg/injection, schedule: Q04DX003 (ip), vehicle: saline
[2] = dose: 200.0 mg/kg/injection, schedule: Q04DX003 (ip), vehicle: saline
[3] = dose: 400.0 mg/kg/injection, schedule: Q04DX003 (ip), vehicle: saline
[4] = dose: 25.0 mg/kg/injection, schedule: Q01DX009 (ip), vehicle: saline with Tween-80
[5] = dose: 50.0 mg/kg/injection, schedule: Q01DX009 (ip), vehicle: saline with Tween-80
[6] = dose: 100.0 mg/kg/injection, schedule: Q01DX009 (ip), vehicle: Klucel (hydroxypropylcellulose) (HPC)
[7] = dose: 100.0 mg/kg/injection, schedule: Q04DX003 (ip), vehicle: Klucel (hydroxypropylcellulose) (HPC)
[8] = dose: 200.0 mg/kg/injection, schedule: Q01DX009 (ip), vehicle: Klucel (hydroxypropylcellulose) (HPC)
[9] = dose: 200.0 mg/kg/injection, schedule: Q04DX003 (ip), vehicle: Klucel (hydroxypropylcellulose) (HPC)
[10] = dose: 400.0 mg/kg/injection, schedule: Q01DX009 (ip), vehicle: Klucel (hydroxypropylcellulose) (HPC)
[11] = dose: 400.0 mg/kg/injection, schedule: Q04DX003 (ip), vehicle: Klucel (hydroxypropylcellulose) (HPC)
[12] = dose: 100.0 mg/kg/injection, schedule: Q01DX001 (ip), vehicle: saline
[13] = dose: 200.0 mg/kg/injection, schedule: Q01DX001 (ip), vehicle: saline
[14] = dose: 100.0 mg/kg/injection, schedule: Q04DX002 (ip), vehicle: Klucel (hydroxypropylcellulose) (HPC)
[15] = dose: 25.0 mg/kg/injection, schedule: Q04DX003 (ip), vehicle: saline
[16] = dose: 50.0 mg/kg/injection, schedule: Q04DX003 (ip), vehicle: saline
[17] = dose: 100.0 mg/kg/injection, schedule: Q01DX009 (ip), vehicle: saline with Tween-80
[18] = dose: 200.0 mg/kg/injection, schedule: Q01DX009 (ip), vehicle: saline with Tween-80
[19] = dose: 400.0 mg/kg/injection, schedule: Q01DX009 (ip), vehicle: saline with Tween-80
[20] = dose: 100.0 mg/kg/injection, schedule: Q04DX003 (ip), vehicle: saline with Tween-80
[21] = dose: 200.0 mg/kg/injection, schedule: Q04DX003 (ip), vehicle: saline with Tween-80
[22] = dose: 400.0 mg/kg/injection, schedule: Q04DX003 (ip), vehicle: saline with Tween-80
[23] = dose: 100.0 mg/kg/injection, schedule: Q01DX001 (ip), vehicle: saline with Tween-80
[24] = dose: 200.0 mg/kg/injection, schedule: Q01DX001 (ip), vehicle: saline with Tween-80
[25] = dose: 400.0 mg/kg/injection, schedule: Q01DX001 (ip), vehicle: saline with Tween-80

Measured: T/C

O=C1CC=C(Nc2ccc(Br)cc2)C(=O)O1
inactive: [1] 106 % of control | [2] 108 % of control | [3] 108 % of control

NC(=S)N/N=C\c1nccc2c(C(=O)O)cccc12
inactive: dose: 100.0 mg/kg/injection, schedule: Q04DX002 (ip), vehicle: saline 106 % of control | dose: 200.0 mg/kg/injection, schedule: Q04DX002 (ip), vehicle: saline 106 % of control

CCOC(Cl)CCl (stereo unspecified)
inactive: dose: 6.25 mg/kg/injection, schedule: Q01DX009 (ip), vehicle: saline with Tween-80 106 % of control | dose: 12.5 mg/kg/injection, schedule: Q01DX001 (ip), vehicle: saline with Tween-80 97 % of control | dose: 12.5 mg/kg/injection, schedule: Q01DX009 (ip), vehicle: saline with Tween-80 100 % of control | dose: 25.0 mg/kg/injection, schedule: Q01DX001 (ip), vehicle: saline with Tween-80 97 % of control | [4] 108 % of control | dose: 50.0 mg/kg/injection, schedule: Q01DX001 (ip), vehicle: saline with Tween-80 93 % of control and 105 % of control | [5] 101 % of control

CCCC(C)(O)C(C)(C)C (stereo unspecified)
inactive: dose: 100.0 mg/kg/injection, schedule: Q01DX001 (ip), vehicle: carboxymethylcellulose (CMC) 106 % of control | dose: 200.0 mg/kg/injection, schedule: Q01DX001 (ip), vehicle: carboxymethylcellulose (CMC) 106 % of control | dose: 400.0 mg/kg/injection, schedule: Q01DX001 (ip), vehicle: carboxymethylcellulose (CMC) 90 % of control

CC(O)c1ccc(Cl)c(Cl)c1 (stereo unspecified)
inactive: [6] 91 % of control | [7] 98 % of control | [8] 90 % of control | [9] 109 % of control | [10] 101 % of control | [11] 104 % of control

COc1ccc(C2c3cc(OC)c(OC)c(S(N)(=O)=O)c3CC3C(=O)OCC32)cc1OC (stereo unspecified)
inactive: [12] 98 % of control | [13] 96 % of control | dose: 400.0 mg/kg/injection, schedule: Q01DX001 (ip), vehicle: saline 98 % of control

C[C@]12CC[C@@H]3c4ccc(O)cc4CC[C@H]3[C@@H]1C[C@H](O)C2
inactive: dose: 100.0 mg/kg/injection, schedule: Q01DX001 (sc), vehicle: steriod suspending solution 98 % of control | dose: 100.0 mg/kg/injection, schedule: Q04DX003 (sc), vehicle: steriod suspending solution 96 % of control | dose: 200.0 mg/kg/injection, schedule: Q01DX001 (sc), vehicle: steriod suspending solution 102 % of control | dose: 200.0 mg/kg/injection, schedule: Q04DX003 (sc), vehicle: steriod suspending solution 104 % of control | dose: 400.0 mg/kg/injection, schedule: Q01DX001 (sc), vehicle: steriod suspending solution 105 % of control | dose: 400.0 mg/kg/injection, schedule: Q04DX003 (sc), vehicle: steriod suspending solution 94 % of control

CC(C)OC(=O)c1ccccc1-c1ccccc1
inactive: dose: 100.0 mg/kg/injection, schedule: Q01DX001 (ip), vehicle: other 102 % of control | dose: 200.0 mg/kg/injection, schedule: Q01DX001 (ip), vehicle: other 96 % of control | dose: 400.0 mg/kg/injection, schedule: Q01DX001 (ip), vehicle: other 87 % of control

c1ccc(-c2nnn(CCn3nnc(-c4ccccc4)n3)n2)cc1
inactive: [7] 102 % of control | [9] 104 % of control | [11] 98 % of control

c1ccc2c(c1)CCc1ccccc1N=N2
inactive: dose: 100.0 mg/kg/injection, schedule: Q01DX001 (ip), vehicle: Klucel (hydroxypropylcellulose) (HPC) 96 % of control | dose: 200.0 mg/kg/injection, schedule: Q01DX001 (ip), vehicle: Klucel (hydroxypropylcellulose) (HPC) 92 % of control | dose: 400.0 mg/kg/injection, schedule: Q01DX001 (ip), vehicle: Klucel (hydroxypropylcellulose) (HPC) 94 % of control

CCNC(=O)OCC1C2CCC(O2)C1COC(=O)NCC (stereo unspecified)
inactive: [14] 101 % of control | dose: 200.0 mg/kg/injection, schedule: Q04DX002 (ip), vehicle: Klucel (hydroxypropylcellulose) (HPC) 98 % of control | dose: 400.0 mg/kg/injection, schedule: Q04DX002 (ip), vehicle: Klucel (hydroxypropylcellulose) (HPC) 98 % of control

CCCCNC(=O)OCC(C)(CCC)COC(N)=O (stereo unspecified)
inactive: dose: 25.0 mg/kg/injection, schedule: Q01DX009 (ip), vehicle: saline 101 % of control | [15] 95 % of control | dose: 50.0 mg/kg/injection, schedule: Q01DX009 (ip), vehicle: saline 101 % of control | [16] 95 % of control | dose: 100.0 mg/kg/injection, schedule: Q01DX009 (ip), vehicle: saline 109 % of control | [1] 101 % of control | dose: 200.0 mg/kg/injection, schedule: Q01DX009 (ip), vehicle: saline 104 % of control | [2] 95 % of control | dose: 400.0 mg/kg/injection, schedule: Q01DX009 (ip), vehicle: saline 103 % of control | [3] 95 % of control

Cc1ccc(N=C2C=CC(=O)O2)cc1
inactive: [17] 98 % of control | [18] 100 % of control | [19] 95 % of control

COc1ccc2c(c1OC)CCN1C3=C(CC4(CC3)OCCO4)C(=O)CC21 (stereo unspecified)
inactive: [20] 97 % of control | [21] 88 % of control | [22] 101 % of control

C[C@]12CC[C@H]3[C@@H](CC[C@]4(O)C[C@@H](O)CC[C@]34CO)[C@@]1(O)CC[C@@H]2C1=CC(=O)OC1
inactive: dose: 50.0 mg/kg/injection, schedule: Q01DX001 (ip), vehicle: saline 106 % of control | [12] 100 % of control | [13] 100 % of control

CO[Si](OC)(OC)OC
inactive: [4] 92 % of control | [15] 94 % of control | [5] 92 % of control | [16] 108 % of control | [20] 101 % of control | [1] 103 % of control

O=C(CC(O)(C(F)(F)F)C(F)(F)F)c1ccc(C(O)CC(O)(C(F)(F)F)C(F)(F)F)cc1 (stereo unspecified)
inactive: dose: 25.0 mg/kg/injection, schedule: Q01DX009 (ip), vehicle: gum acacia 106 % of control | dose: 25.0 mg/kg/injection, schedule: Q04DX003 (ip), vehicle: gum acacia 102 % of control | dose: 50.0 mg/kg/injection, schedule: Q01DX009 (ip), vehicle: gum acacia 89 % of control | dose: 50.0 mg/kg/injection, schedule: Q04DX003 (ip), vehicle: gum acacia 90 % of control | dose: 100.0 mg/kg/injection, schedule: Q04DX003 (ip), vehicle: gum acacia 93 % of control and 98 % of control

O=S(=O)(O)Nc1ccc(Cl)cc1
inactive: dose: 25.0 mg/kg/injection, schedule: Q04DX002 (ip), vehicle: Klucel (hydroxypropylcellulose) (HPC) 102 % of control | dose: 50.0 mg/kg/injection, schedule: Q04DX002 (ip), vehicle: Klucel (hydroxypropylcellulose) (HPC) 102 % of control | [14] 102 % of control

COc1ccc([N+](=O)[O-])cc1NC(=O)c1cccc(Cl)c1
inactive: [6] 114 % of control | [8] 98 % of control | [10] 102 % of control

CN=NC(C)C
inactive: [23] 97 % of control | [24] 107 % of control | [25] 112 % of control

CNC(C)(C)CO
inactive: [1] 100 % of control | [2] 107 % of control | [3] 104 % of control

Cc1ccccc1C(O)c1cnc(C)n1Cc1ccccc1 (stereo unspecified)
inactive: dose: 50.0 mg/kg/injection, schedule: Q04DX002 (ip), vehicle: saline with Tween-80 105 % of control and 88 % of control | [23] 102 % of control | [17] 100 % of control and 87 % of control | [20] 92 % of control | [24] 90 % of control | [18] 103 % of control | [21] 92 % of control | [25] 93 % of control | [19] 102 % of control | [22] 97 % of control

NC(=S)N=Nc1c(O)n(C2OC(CO)C(O)C(O)C2O)c2ccccc12 (stereo unspecified)
inactive: dose: 50.0 mg/kg/injection, schedule: Q01DX005 (ip), vehicle: saline 88 % of control | dose: 100.0 mg/kg/injection, schedule: Q01DX005 (ip), vehicle: saline 94 % of control

Source: PubChem BioAssay AID248 (DTP/NCI, 2004)
